Assay results: ChEMBL document CHEMBL1201862, “PubChem BioAssay data set” (2004)
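Five concentrations, 48 hours, 96-well plates. The concentration for 50% growth inhibition is given as GI50.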 Activity calls are given as the source filed them. No stated cut-off is given here; in the data, active = GI50 up to about 1.1 µM and inactive = higher.

Key:
Experiment in all cases: NCI-60 cell line screen, 48 h
[1] = test system: PC-3
[2] = test system: ACHN
[3] = test system: NCI-H23
[4] = test system: UO-31
[5] = test system: DU-145
[6] = test system: HOP-92
[7] = test system: 786-0
[8] = test system: SK-MEL-5
[9] = test system: HL-60
[10] = test system: SK-MEL-2
[11] = test system: Hs-578T
[12] = test system: HT-29
[13] = test system: SK-MEL-28
[14] = test system: CAKI-1
[15] = test system: OVCAR-3
[16] = test system: SW-620
[17] = test system: SN12C

Measured: GI50

CC(=O)Oc1ccc(-c2nnc(-c3ccc(OC(C)=O)cc3)nn2)cc1
inactive: [1] > 100 µM | [2] 59 µM | [3] > 100 µM | [4] 64 µM | [5] > 100 µM | [6] > 100 µM | [7] > 100 µM | [8] > 100 µM | [9] 29.8 µM | [10] > 100 µM | [11] > 100 µM | [12] > 100 µM | [13] > 100 µM | [14] > 100 µM | [15] > 100 µM | [16] > 100 µM | [17] > 100 µM

Cc1ccc(S(=O)(=O)NNC(C[N+](=O)[O-])c2ccccc2)cc1 (stereo not given)
inactive: [1] 57.9 µM | [2] 16.1 µM | [3] 43 µM | [4] 22.3 µM | [5] 44.5 µM | [6] 39.8 µM | [7] 22.6 µM | [8] 19.4 µM | [9] 3.71 µM | [10] 34.2 µM | [11] 44.4 µM | [12] 2.02 µM | [14] 22.5 µM | [15] 21.7 µM | [16] 11.5 µM | [17] 32 µM

CC(=O)c1ccc2c3c1[C@@H]1O[C@@H]1c1cccc(c1-3)[C@@H]1O[C@H]21
inactive: [1] 17.3 µM | [2] 21.6 µM | [3] 7 µM | [4] 6.84 µM | [5] 8.39 µM | [6] 13.3 µM | [7] 5.6 µM | [8] 11.7 µM | [9] 9.91 µM | [10] 14.1 µM | [11] 14.9 µM | [12] 5.55 µM | [13] 3.5 µM | [14] 4.72 µM | [15] 13.5 µM | [16] 2.54 µM | [17] 8.26 µM

C=CCN1C[C@H](C)N([C@H](c2ccc(C(=O)N(CC)CC)cc2)c2cccc(OC)c2)C[C@H]1C [SNC-80]
inactive: [1] 31.8 µM | [2] 35.6 µM | [3] 32.7 µM | [4] 62.2 µM | [5] > 100 µM | [6] 5.11 µM | [7] > 100 µM | [8] 14 µM | [9] 24.8 µM | [10] > 100 µM | [11] 26 µM | [12] 27.5 µM | [13] 69.3 µM | [14] > 100 µM | [15] 18.3 µM | [16] 44.6 µM | [17] 64.1 µM

CCOC(=O)c1c(-c2ccc(Cl)cc2)c(C#N)c(=S)n(C2OC(CO)C(O)C(O)C2O)c1-c1ccccc1 (stereo not given)
inactive: [1] 19.9 µM | [2] 35.6 µM | [3] 30.3 µM | [4] 38 µM | [5] 27.2 µM | [6] 18.9 µM | [7] 26.7 µM | [8] 15.6 µM | [9] > 10 µM | [10] 24.1 µM | [11] 24.2 µM | [12] 17.9 µM | [13] 17.3 µM | [14] 29.8 µM | [15] 21.3 µM | [16] 18.5 µM | [17] 38.4 µM

C/C(=N/NC(=S)N1CCCCCC1)c1ccccc1O
inactive: [1] 6.7 µM | [2] 2.65 µM | [3] 14 µM | [4] 2.62 µM | [5] 4.72 µM | [6] 50.2 µM | [7] 1.89 µM | [8] 4.05 µM | [9] 2.25 µM | [10] 3.29 µM | [11] > 100 µM | [12] 7.73 µM | [13] 8.36 µM | [14] 8.05 µM | [15] 1.38 µM | [16] 4.97 µM | [17] 4.63 µM

CC(=O)Oc1c(-c2ccccc2)oc2ccccc12
active: [14] 1.11 µM
inactive: [1] 1.53 µM | [2] 1.79 µM | [3] 1.77 µM | [4] 1.61 µM | [5] 3.96 µM | [6] 2.4 µM | [7] 4.02 µM | [8] 1.35 µM | [9] 1.12 µM | [10] 1.8 µM | [11] 2.36 µM | [12] 2.5 µM | [13] 2.38 µM | [15] 2.12 µM | [16] 3.1 µM | [17] 2.19 µM

NCCC(=O)NC(Cc1c[nH]cn1)C(=O)O (stereo not given)
inactive: [1] > 100 µM | [2] > 100 µM | [3] > 100 µM | [4] > 100 µM | [5] > 100 µM | [6] > 100 µM | [7] > 100 µM | [8] > 100 µM | [9] > 100 µM | [10] > 100 µM | [11] > 100 µM | [12] > 100 µM | [13] > 100 µM | [14] > 100 µM | [15] > 100 µM | [16] > 100 µM | [17] > 100 µM

Cc1cccc(C)c1/N=N/c1ccc(O)c(CN(C)C)c1
inactive: [1] 62.8 µM | [2] 36.2 µM | [3] 60.1 µM | [4] 15.6 µM | [5] > 100 µM | [6] 3.21 µM | [7] 43.9 µM | [8] 11.7 µM | [9] 26.9 µM | [10] 25.2 µM | [11] 30.8 µM | [12] 22.7 µM | [13] 20.7 µM | [14] 79.4 µM | [15] 45.3 µM | [16] 91.2 µM | [17] > 100 µM

Nc1nc(-c2ccccc2)nc2oc(-c3cccs3)nc12
inactive: [1] > 100 µM | [2] > 100 µM | [3] > 100 µM | [4] > 100 µM | [5] > 100 µM | [6] > 100 µM | [7] > 100 µM | [8] > 100 µM | [9] > 100 µM | [10] > 100 µM | [11] > 100 µM | [12] > 100 µM | [13] > 100 µM | [14] > 10 µM | [15] > 100 µM | [16] > 100 µM | [17] > 100 µM

CCOC(=O)Cc1nc2cc(F)c(F)cc2[nH]c1=O
inactive: [1] > 100 µM | [2] > 100 µM | [3] > 100 µM | [4] > 100 µM | [5] > 100 µM | [6] > 100 µM | [7] > 100 µM | [8] > 100 µM | [9] > 100 µM | [10] > 100 µM | [11] > 100 µM | [12] > 100 µM | [13] > 100 µM | [14] > 100 µM | [15] > 100 µM | [16] > 100 µM | [17] > 100 µM

CCN(CC)C1Oc2cc3c(cc2C(c2cc(OC)c(OC)c(OC)c2)C1C)OCO3 (stereo not given)
active: [1] 0.979 µM | [6] 0.676 µM | [8] 0.408 µM | [9] 0.242 µM | [10] 0.887 µM | [11] 0.759 µM | [12] 0.603 µM | [13] 0.719 µM | [15] 0.387 µM | [16] 0.531 µM
inactive: [2] 2.14 µM | [3] 1.53 µM | [4] 2.56 µM | [5] 1.77 µM | [7] 1.33 µM | [14] 1.85 µM | [17] 1.52 µM

O=C1C=CC(=O)c2c1ccc1c3ccccc3n(CCCCCn3c4ccccc4c4ccc5c(c43)C(=O)C=CC5=O)c21
active: [9] 0.875 µM
inactive: [1] 17.1 µM | [2] 15.3 µM | [3] 16 µM | [4] 7.87 µM | [5] > 55.7 µM | [6] 16.5 µM | [7] 6.87 µM | [8] 32.4 µM | [10] 23.3 µM | [11] 21.2 µM | [12] 32 µM | [13] 16.4 µM | [14] 6.98 µM | [15] 17.9 µM | [16] 8.17 µM | [17] 18.4 µM

Oc1ccc(/C=C/c2cccc(/C=C/c3ccc(O)c(O)c3)n2)cc1O
inactive: [1] 17.5 µM | [2] 5.14 µM | [4] 3.85 µM | [5] 3.77 µM | [6] 11.2 µM | [7] 10.7 µM | [8] 4.72 µM | [9] 2.82 µM | [10] 11.7 µM | [11] 54.5 µM | [12] 10.8 µM | [13] 14.2 µM | [14] 13.8 µM | [15] 4.05 µM | [16] 7.05 µM | [17] 8.87 µM

CC12CC(OC(=O)[C@]1(C)O)[C@@H]([C@]1(O)CC[C@H]3[C@@H]4C[C@H]5O[C@]56[C@@H](O)C=CC(=O)[C@]6(C)[C@H]4CC[C@@]31C)C2 (stereo not given in full)
active: [8] 0.785 µM | [9] < 0.01 µM
inactive: [1] 12.1 µM | [2] 10.9 µM | [3] 4.08 µM | [4] 4.32 µM | [5] 22.2 µM | [6] 2.92 µM | [7] 3.04 µM | [10] 6.08 µM | [11] 6.71 µM | [12] 4.03 µM | [13] 11.7 µM | [14] 9.59 µM | [15] 2.59 µM | [16] 3.18 µM | [17] 6.19 µM

CC(C)N(Cc1ccccc1)S(=O)(=O)c1nc(C(C)(C)C)n[nH]1
inactive: [1] > 100 µM | [2] > 100 µM | [3] > 100 µM | [4] > 100 µM | [5] > 100 µM | [6] > 100 µM | [7] > 100 µM | [8] > 100 µM | [9] 46.1 µM | [10] > 100 µM | [11] > 100 µM | [12] > 100 µM | [13] > 100 µM | [14] > 100 µM | [15] > 100 µM | [16] > 100 µM | [17] > 100 µM
